Measurements reported in article PMC6325200, “Effects of Microplate Type and Broth Additives on Microdilution MIC Susceptibility Assays” (Antimicrobial Agents and Chemotherapy, 2018).
Values after ≈ are worked out from the molar mass of the structure shown. Read-outs that look alike come from different tables or passages of the source.

Assays:
[1] = tested on: E. faecalis ATCC 29212; experiment: microbe, parasite or virus in culture; details: Corning NBS; MHB +T80; n = 2
Procedure: (§1) A positive control of a row of just the bacteria and a negative control of only the medium were included for every plate tested.
(§2) The compounds along with standard antibiotics were serially diluted 2-fold across the 96-well plates. […] A sample of each culture was then diluted 40-fold in fresh MH broth (in presence and absence of Tween) and incubated at 37°C for 2 to 3 h.

[2] = tested on: S. aureus GISA NRS 2; ATCC 700698; experiment: microbe, parasite or virus in culture; details: Corning NBS; MHB -T80; n = 2
Procedure: as §1, §2

[3] = estimated; cited from earlier work
Text: Other assay additives can affect MIC values. […] This in turn translates into reduced ...

[4] = tested on: S. pyogenes ATCC 12344; details: ATCC 12344
Procedure: as §1, §2

[5] = tested on: MRSA ATCC 43300; details: n = 2
Procedure: as §1, §2
For experiments in the presence of surfactant, 2% beractant (25 mg/ml) was added to the mid-log-phase cultures and mixed gently and added to all the 96-well plates. For experiments in the presence of serum, a mixture of 50% of human serum along with 50% MHB was prepared and used throughout the experiment.

[6] = tested on: S. aureus ATCC 29123; details: cited from earlier work
Procedure: The majority of antibiotic stock solutions for testing are prepared in water, phosphate buffer, or pH-adjusted aqueous solution (106 out of 139 reported in CLSI M100 [see Table 6A, “Solvents and diluents for preparation of stock solutions of antimicrobial agents”]) ([3]). […] Furthermore, the CLSI reference MIC quality control range tabulated for dalbavancin an ...

[7] = tested on: MRSA; details: literature value; cited from earlier work
Text: TABLE 1 Literature MIC values for tested antibiotics | column: MIC (µg/ml) (reference[s]) / MRSA

CN[C@H]1C(=O)N[C@@H]2Cc3ccc(cc3)Oc3cc4cc(c3O[C@@H]3O[C@H](C(=O)O)[C@@H](O)[C@H](O)[C@H]3NC(=O)CCCCCCCCC(C)C)Oc3ccc(cc3Cl)[C@@H](O)[C@@H]3NC(=O)[C@H](NC(=O)[C@@H]4NC(=O)[C@@H](NC2=O)c2cc(cc(O)c2Cl)Oc2cc1ccc2O)c1ccc(O)c(c1)-c1c(O[C@H]2O[C@H](CO)[C@@H](O)[C@H](O)[C@@H]2O)cc(O)cc1[C@@H](C(=O)NCCCN(C)C)NC3=O [Dalbavancin, dalbavancin]
MIC [1]: 0.125 µg/mL (≈ 0.0688 µM) | MIC [2]: 0.125 µg/mL (≈ 0.0688 µM) | half-life [3]: 220 to 288 h | MIC [4]: ≤ 0.003 µg/mL | MIC ([5]; Corning flat TC plate, MHB −T80, no additive): 4 µg/mL (≈ 2.2 µM) | MIC ([5]; Trek PS, MH + 2% LHB, 2% LS): 0.125 µg/mL | MIC ([5]; Trek PS, MH + 2% LHB, no additive): 0.125 µg/mL | MIC ([6]; CLSI-consistent value, 0.002% polysorbate 80): 0.06 µg/mL (≈ 0.033 µM) | MIC ([6]; dilutions in contact with plastic for as little as 30 min before inoculation with surfactant-containing media): 2 to 8 µg/mL | MIC (literature) [7]: 0.06 ([68], [69]) µg/ml
